Structures are written as SMILES. Active and inactive are the calls of the source. The calls are words filed in the database; no cut-off is given here.

Test [1] concerns the target MAP kinase-activated protein kinase 2 (Homo sapiens) (UniProt P49137). Put plainly: MAPKAPK2 SGC Tm panel (DSF). To be noted: for ΔTm: Compound concentration 10.0 uM.
Test [2] concerns the target T1, Calcium/calmodulin-dependent protein kinase type IV (Homo sapiens) (UniProt Q16566).
T1 sequence (whole entry): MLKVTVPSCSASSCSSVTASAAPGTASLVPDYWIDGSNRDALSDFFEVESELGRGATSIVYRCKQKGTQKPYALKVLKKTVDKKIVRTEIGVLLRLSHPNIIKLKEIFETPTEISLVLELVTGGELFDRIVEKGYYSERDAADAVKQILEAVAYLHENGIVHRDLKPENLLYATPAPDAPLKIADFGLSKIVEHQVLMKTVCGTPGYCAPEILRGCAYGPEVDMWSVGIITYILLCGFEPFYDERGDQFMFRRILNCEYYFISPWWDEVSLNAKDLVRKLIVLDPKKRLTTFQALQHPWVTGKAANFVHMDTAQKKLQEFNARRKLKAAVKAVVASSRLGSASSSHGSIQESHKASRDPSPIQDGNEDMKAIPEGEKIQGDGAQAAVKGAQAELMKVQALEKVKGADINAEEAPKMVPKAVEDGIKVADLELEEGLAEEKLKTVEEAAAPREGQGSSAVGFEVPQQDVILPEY
Nature of the test: CAMK4 SGC Tm panel (DSF). The note with it: for ΔTm: Compound concentration 10.0 uM.

The target in test [3] is T2, Muscarinic acetylcholine receptor M1 (Homo sapiens) (UniProt P11229).
T2 sequence (whole entry): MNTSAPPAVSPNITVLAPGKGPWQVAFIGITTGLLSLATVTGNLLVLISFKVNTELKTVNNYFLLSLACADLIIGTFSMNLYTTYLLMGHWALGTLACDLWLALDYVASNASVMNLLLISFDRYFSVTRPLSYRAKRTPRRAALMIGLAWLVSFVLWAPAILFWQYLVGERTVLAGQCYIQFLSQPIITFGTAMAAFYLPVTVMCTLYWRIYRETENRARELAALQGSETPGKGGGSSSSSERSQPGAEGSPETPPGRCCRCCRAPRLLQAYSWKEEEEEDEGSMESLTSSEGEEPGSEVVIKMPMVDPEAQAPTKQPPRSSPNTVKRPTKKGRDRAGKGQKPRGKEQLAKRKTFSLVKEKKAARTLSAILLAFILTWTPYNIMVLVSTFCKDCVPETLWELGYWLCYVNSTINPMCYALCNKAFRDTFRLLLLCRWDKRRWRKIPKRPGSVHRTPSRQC
The note with it: Compound concentration 10.0 uM.

For test [4], the target named is Proto-oncogene tyrosine-protein kinase Src (Homo sapiens) (UniProt P12931). Put plainly: SRC SGC Tm panel (DSF). To be noted: for ΔTm: Compound concentration 10.0 uM.
Proto-oncogene tyrosine-protein kinase Src (Homo sapiens), sequence (P12931 2-536 limits assumed): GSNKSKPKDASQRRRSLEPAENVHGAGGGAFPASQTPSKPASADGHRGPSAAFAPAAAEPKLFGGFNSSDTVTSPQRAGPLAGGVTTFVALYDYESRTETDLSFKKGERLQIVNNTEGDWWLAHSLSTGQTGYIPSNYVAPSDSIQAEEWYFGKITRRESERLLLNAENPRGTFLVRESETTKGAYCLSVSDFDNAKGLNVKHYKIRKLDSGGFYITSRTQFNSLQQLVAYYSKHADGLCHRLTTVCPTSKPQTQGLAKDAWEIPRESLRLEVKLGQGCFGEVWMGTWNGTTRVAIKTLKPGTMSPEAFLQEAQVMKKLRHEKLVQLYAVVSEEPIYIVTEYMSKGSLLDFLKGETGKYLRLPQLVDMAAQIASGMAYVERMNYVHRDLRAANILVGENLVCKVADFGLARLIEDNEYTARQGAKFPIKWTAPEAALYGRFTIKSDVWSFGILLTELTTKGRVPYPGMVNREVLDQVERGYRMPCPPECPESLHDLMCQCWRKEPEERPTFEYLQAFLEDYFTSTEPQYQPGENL
For test [5], the target named is Serine/threonine-protein kinase 24 (Homo sapiens) (UniProt Q9Y6E0). Nature of the test: MST3 SGC Tm panel (DSF). The note with it: for ΔTm: Compound concentration 10.0 uM.
Serine/threonine-protein kinase 24 (Homo sapiens), sequence (Q9Y6E0 whole entry, looked up): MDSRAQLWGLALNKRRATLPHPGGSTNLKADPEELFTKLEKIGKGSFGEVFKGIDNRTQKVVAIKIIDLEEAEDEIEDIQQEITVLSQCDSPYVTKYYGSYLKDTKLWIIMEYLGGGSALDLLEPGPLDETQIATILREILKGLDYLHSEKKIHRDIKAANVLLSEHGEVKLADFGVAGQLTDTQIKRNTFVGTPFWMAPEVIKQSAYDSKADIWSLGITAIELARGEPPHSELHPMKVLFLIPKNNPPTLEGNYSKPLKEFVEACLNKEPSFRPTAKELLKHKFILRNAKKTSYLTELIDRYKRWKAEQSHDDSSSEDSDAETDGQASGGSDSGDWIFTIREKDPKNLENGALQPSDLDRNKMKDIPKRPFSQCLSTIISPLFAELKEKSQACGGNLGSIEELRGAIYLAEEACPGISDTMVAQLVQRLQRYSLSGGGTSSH
Test [6] concerns the target High affinity cGMP-specific 3',5'-cyclic phosphodiesterase 9A (Homo sapiens, UniProt O76083). Nature of the test: 3H-cAMP and 3H-cGMP Scintillation Proximity Assay (PDE9A). For orientation: Scintillation proximity formats need no separation of bound from free tracer.
For test [7], the target named is T3, Serine/threonine-protein kinase Nek1 (Homo sapiens) (UniProt Q96PY6).
T3 sequence (whole entry): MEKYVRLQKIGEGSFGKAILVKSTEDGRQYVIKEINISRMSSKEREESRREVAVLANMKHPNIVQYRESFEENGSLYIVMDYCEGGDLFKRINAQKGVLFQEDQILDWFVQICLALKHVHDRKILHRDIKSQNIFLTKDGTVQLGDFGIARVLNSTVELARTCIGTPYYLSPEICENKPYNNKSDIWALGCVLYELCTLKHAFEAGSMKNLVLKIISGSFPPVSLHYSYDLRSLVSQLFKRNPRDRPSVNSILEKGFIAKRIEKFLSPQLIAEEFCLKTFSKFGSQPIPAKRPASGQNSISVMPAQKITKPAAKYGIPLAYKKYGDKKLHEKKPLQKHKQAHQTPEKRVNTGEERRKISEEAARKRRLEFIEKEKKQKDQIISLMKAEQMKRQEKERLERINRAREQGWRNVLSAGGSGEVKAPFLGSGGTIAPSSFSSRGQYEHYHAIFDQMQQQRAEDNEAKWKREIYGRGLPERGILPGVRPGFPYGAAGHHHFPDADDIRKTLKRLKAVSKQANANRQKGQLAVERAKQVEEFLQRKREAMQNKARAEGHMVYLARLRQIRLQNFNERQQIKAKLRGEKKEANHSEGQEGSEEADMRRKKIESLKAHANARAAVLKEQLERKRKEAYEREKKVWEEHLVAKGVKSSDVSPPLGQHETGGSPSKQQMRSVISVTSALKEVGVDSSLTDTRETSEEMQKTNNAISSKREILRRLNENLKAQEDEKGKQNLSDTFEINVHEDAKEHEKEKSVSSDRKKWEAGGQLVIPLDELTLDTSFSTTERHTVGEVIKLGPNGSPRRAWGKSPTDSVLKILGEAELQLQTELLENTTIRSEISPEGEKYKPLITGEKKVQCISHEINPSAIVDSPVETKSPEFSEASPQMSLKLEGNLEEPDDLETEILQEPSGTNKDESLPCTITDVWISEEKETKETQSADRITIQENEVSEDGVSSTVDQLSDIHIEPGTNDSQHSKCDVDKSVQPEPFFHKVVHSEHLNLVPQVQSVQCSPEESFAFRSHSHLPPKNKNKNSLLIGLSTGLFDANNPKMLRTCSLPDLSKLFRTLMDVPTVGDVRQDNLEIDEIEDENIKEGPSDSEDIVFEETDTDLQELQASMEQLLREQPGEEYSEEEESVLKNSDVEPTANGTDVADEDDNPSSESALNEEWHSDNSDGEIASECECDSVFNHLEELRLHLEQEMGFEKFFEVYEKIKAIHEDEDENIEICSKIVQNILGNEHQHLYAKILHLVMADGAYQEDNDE
Nature of the test: NEK1 SGC Tm panel (DSF). The note with it: for ΔTm: Compound concentration 10.0 uM.

Test [8] addresses Ephrin type-A receptor 2 (Homo sapiens) (UniProt P29317). Put plainly: EPHA2 SGC Tm panel (DSF). The note with it: for ΔTm: Compound concentration 10.0 uM.

MAP kinase-activated protein kinase 2 (Homo sapiens), sequence (P49137 whole entry, looked up): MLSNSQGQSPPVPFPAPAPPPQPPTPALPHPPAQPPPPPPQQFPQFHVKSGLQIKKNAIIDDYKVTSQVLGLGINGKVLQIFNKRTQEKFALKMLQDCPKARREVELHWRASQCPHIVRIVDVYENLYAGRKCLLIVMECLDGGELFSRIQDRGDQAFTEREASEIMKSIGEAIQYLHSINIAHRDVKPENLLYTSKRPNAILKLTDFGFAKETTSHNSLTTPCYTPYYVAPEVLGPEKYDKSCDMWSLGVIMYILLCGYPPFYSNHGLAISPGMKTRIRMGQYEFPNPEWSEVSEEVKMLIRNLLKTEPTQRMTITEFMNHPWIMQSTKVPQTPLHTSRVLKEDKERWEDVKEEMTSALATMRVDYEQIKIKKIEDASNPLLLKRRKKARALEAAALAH
Ephrin type-A receptor 2 (Homo sapiens), sequence (P29317 whole entry): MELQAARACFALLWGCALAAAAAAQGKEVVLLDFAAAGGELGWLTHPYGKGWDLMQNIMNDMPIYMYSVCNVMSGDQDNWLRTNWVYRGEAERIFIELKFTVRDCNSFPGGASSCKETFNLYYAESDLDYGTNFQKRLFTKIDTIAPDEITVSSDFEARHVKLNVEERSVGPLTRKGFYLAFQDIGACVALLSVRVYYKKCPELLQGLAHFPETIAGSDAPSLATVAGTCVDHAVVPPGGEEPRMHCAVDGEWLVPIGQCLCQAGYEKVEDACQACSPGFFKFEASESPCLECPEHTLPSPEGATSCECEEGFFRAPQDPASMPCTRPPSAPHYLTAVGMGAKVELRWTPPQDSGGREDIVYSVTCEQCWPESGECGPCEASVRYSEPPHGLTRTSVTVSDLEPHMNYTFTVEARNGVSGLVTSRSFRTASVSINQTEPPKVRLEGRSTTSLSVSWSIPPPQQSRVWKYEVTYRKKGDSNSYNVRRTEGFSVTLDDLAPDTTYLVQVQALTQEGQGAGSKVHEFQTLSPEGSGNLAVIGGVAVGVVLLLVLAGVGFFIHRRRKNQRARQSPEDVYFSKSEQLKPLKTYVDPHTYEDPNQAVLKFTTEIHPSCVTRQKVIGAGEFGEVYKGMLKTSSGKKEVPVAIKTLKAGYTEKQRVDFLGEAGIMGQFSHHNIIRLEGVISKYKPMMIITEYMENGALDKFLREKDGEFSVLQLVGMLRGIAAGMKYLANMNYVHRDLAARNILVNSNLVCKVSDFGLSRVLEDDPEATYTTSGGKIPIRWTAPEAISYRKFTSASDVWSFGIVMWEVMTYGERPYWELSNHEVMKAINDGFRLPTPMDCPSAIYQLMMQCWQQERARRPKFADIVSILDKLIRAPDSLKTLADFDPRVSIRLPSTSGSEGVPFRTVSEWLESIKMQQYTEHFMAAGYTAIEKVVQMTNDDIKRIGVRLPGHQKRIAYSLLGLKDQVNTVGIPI
High affinity cGMP-specific 3',5'-cyclic phosphodiesterase 9A, sequence (O76083 whole entry): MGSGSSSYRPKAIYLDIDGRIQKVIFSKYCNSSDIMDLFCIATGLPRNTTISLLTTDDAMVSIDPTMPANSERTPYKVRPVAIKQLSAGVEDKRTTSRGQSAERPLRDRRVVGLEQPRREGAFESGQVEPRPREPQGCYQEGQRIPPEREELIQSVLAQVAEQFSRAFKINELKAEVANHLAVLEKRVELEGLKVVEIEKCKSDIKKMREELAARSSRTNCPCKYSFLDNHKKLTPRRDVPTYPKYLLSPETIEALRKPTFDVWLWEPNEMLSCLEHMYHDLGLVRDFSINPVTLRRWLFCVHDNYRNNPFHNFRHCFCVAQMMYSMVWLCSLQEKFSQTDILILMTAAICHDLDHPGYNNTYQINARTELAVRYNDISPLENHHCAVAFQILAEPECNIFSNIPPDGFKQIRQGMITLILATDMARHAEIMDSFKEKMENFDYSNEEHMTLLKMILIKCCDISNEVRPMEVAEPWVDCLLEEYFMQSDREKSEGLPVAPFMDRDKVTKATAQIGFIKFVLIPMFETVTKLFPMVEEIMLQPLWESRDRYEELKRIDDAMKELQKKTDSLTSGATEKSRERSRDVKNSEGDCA

Take `CCC[C@@H]1CNCc2c1[nH]c(=O)c(C#N)c2N1CCC2(CC1)CC2`: the delta Tm Staurosporine positive control in test [1] was determined as 3.96; in test [2], 8.45; in test [4], 7.39; in test [5] it was 7.85; in test [7] it was 2.43; in test [8], 7.41. Also, the ΔTm in test [1] is -0.281; in test [2] it was -1.12; in test [4], -0.0953; in test [5], -2.14; in test [7] it was 0.25; in test [8], -0.623. Moreover, in test [3], the inhibition (in general, the change of the read-out against control, counted positive when it falls) is -0.37%. Besides, in test [6], the IC50 (as a rule, the concentration that inhibits the measured activity by half) is reported as > 10 µM (not active).
Turning to `CCC[C@H]1CNCc2c1[nH]c(=O)c(C#N)c2N1CCC2(CC1)CC2`, the delta Tm Staurosporine positive control in test [1] was 3.96; in test [2] it was 8.45; in test [4] it was 7.39; in test [5], 7.85; in test [7], 2.43; in test [8], 7.41. In addition, the ΔTm in test [1] is -0.289; in test [2] it was -0.566; in test [4], -0.143; in test [5] it was -2.08; in test [7] it was 0.404; in test [8], -0.621. Further, the inhibition in test [3] was 0.28%. Further, the IC50 in test [6] was 0.015 µM (active).
